In patent US7117100B2, “Method for the compositional analysis of polymers” (Massachusetts Institute of Technology, priority 1999, dated 2006):

Legend:
[1] = biological target: T1, heparinase III (Pedobacter heparinus, UniProt Q59289); test: Cleavage of defined oligosaccharide substrates by heparinase III; type: biochemical, Flavobacterium heparinum
T1 construct: made in house
From the text: Secondary specificities of the heparinases have been observed, especially under exhaustive degradation conditions. As a part of ongoing investigations into the enzymology of heparinases, the relative rates of cleavage of I and G containing sites by heparinase I and III with defined substrates under different conditions have been measured. For instance heparinase III cleaves both at I and G containing linkages and not I2S [H. E. Conrad, Heparin Binding Proteins (Academic Press, San Diego, 1998).]. However, under the reaction conditions used in this study, there is a dramatic (8-10 fold) difference in the rates of cleavage, with I-containing linkages being clipped more slowly than G-containing linkages (FIG. 7A). […] Each reaction was followed by capillary electrophoresis. […] Under the “short” conditions of digest it is expected that only G-containing saccharides are cleaved to an appreciable extent. [Conditions for enzymatic digest of HLGAG oligosaccharides were set forth above, briefly, Digests were either designated as “short” or “exhaustive”. Short digests were completed with 50 nM enzyme for 10 minutes. Exhaustive digests were completed using 200 nM enzyme for either four hours or overnight. Partial nitrous acid cleavage was completed using a modification of published procedures. Briefly, to an aqueous solution of saccharide was added a 2× solution of sodium nitrite in HCl such that the concentration of nitrous acid was 2 mM and HCl was 20 mM. The reaction was allowed to proceed at room temperature with quenching of aliquots at various time points via the addition of 1 μL of 200 mM sodium acetate 1 mg/mL BSA pH 6.0. Exhaustive nitrous acid was completed by reacting saccharide with 4 mM nitrous acid in HCl overnight at room temperature.
Quite a few factors have severely limited and complicated prior art studies and interpretation of heparinase substrate specificity experiments. First, not only is a homogenous substrate preparation difficult, but also analyzing the substrates and products have been very challenging. […]

[2] = biological target: FGF-2 (Homo sapiens, UniProt P09038); test: Saccharide binding to FGF-2 immobilized on the MALDI surface, salt wash, MALDI-MS detection
Experimental: Protein preparation and immobilization. ATIII was incubated overnight with excess porcine mucosal heparin, then biotinylated with EZ-link sulfo-NHS biotin (Pierce). Canon NP Type E transparency film was taped to the MALDI sample plate and used as a protein immobilization surface. FGF-1 and FGF-2 were immobilized by spotting 1 μl of aqueous solution on the film and air-drying. ATIII was immobilized by first drying 4 μg neutravidin on the film surface, then adding biotinylated ATIII to the neutravidin spot. Heparin was removed by washing ten times with 1M NaCl and ten times with water.
Saccharide binding, selection and analysis. Saccharides were derived from a partial digest of porcine mucosal heparin by heparinase I. The hexasaccharide fraction was obtained by size exclusion chromatography on Biogel P-6 and lyophilized to dryness. Saccharides were bound to immobilized proteins by spotting 1 μl of aqueous solution on the protein spot for at least five minutes. Unbound saccharides were removed by washing with water fifteen times. […] All saccharides were detected as noncovalent complexes with (RG)19R using MALDI parameters described herein.
Isolation, Purification, and Selection of FGF binders from SMC heparan sulfate. […] After drying, the sample was washed, 2 pmol/μl (RG)19R in matrix was added, and the sample was analyzed as outlined above.

[3] = tested on: Heparinase II; test: Incubation of hexasaccharide with heparinase II; type: biochemical
[4] = Cleavage of tetrasaccharides by heparinase I; type: biochemical; conditions: tetrasaccharide substrates, same study as FIG. 7A
From the text: (§1) Secondary specificities of the heparinases have been observed, especially under exhaustive degradation conditions. As a part of ongoing investigations into the enzymology of heparinases, the relative rates of cleavage of I and G containing sites by heparinase I and III with defined substrates under different conditions have been measured. For instance heparinase III cleaves both at I and G containing linkages and not I2S [H. E. Conrad, Heparin Binding Proteins (Academic Press, San Diego, 1998).]. However, under the reaction conditions used in this study, there is a dramatic (8-10 fold) difference in the rates of cleavage, with I-containing linkages being clipped more slowly than G-containing linkages (FIG. 7A). […] Each reaction was followed by capillary electrophoresis. […] Under the “short” conditions of digest it is expected that only G-containing saccharides are cleaved to an appreciable extent. [Conditions for enzymatic digest of HLGAG oligosaccharides were set forth above, briefly, Digests were either designated as “short” or “exhaustive”. Short digests were completed with 50 nM enzyme for 10 minutes. Exhaustive digests were completed using 200 nM enzyme for either four hours or overnight. Partial nitrous acid cleavage was completed using a modification of published procedures. […]

[5] = Relative rates of cleavage of tetrasaccharides by recombinant heparinase III, followed by capillary electrophoresis; type: biochemical
From the text: as §1

Sequence of FGF-2 (P09038 134-288 limits assumed, species assumed): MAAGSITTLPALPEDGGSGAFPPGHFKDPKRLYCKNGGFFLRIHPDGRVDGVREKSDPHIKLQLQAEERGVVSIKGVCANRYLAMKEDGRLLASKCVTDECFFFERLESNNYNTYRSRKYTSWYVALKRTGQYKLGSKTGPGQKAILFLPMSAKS

Molecule: ΔU2SHNS,6SI2SHNS,6S
- Degradation by a commercial source of heparinase III ([1]; commercial enzyme, sulfatase contamination suggested): able to degrade
- Cleavage by recombinant heparinase III ([1]; recombinant enzyme without contamination by other heparin degrading enzymes): does not cleave

Molecule: ΔU2SHNS,6SI2SHNS,6SI2SHNS,6S [nonasulfated hexasaccharide]
- FGF-2 binder selected from SMC heparan sulfate ([2]; bovine aortic SMC HLGAG fragments digested with heparinase II, spotted on FGF-2): high affinity binder
- Structures remaining on immobilized FGF upon a salt wash ([2]; hexasaccharide fraction from incomplete heparinase I digestion of porcine intestinal mucosa heparin): remained

Molecule: ΔUHNH,6SGHNSIHNAc
- Cleavage by heparinase III ([1]; "short" digest conditions): cleavage occurs only at the G
- Cleavage by heparinase II [3]: only cleavage at the G and not the I was observed

B1: heparinase I: HLGAG degrading enzyme; clips at a glycosidic linkage before a 2-O sulfated iduronic acid (protein, UniProt Q05819 22-384, looked up)
Heparin lyase I: QQKKSGNIPYRVNVQADSAKQKAIIDNKWVAVGINKPYALQYDDKLRFNGKPSYRFELKAEDNSLEGYAAGETKGRTELSYSYATTNDFKKFPPSVYQNAQKLKTVYHYGKGICEQGSSRSYTFSVYIPSSFPDNATTIFAQWHGAPSRTLVATPEGEIKTLSIEEFLALYDRMIFKKNIAHDKVEKKDKDGKITYVAGKPNGWKVEQGGYPTLAFGFSKGYFYIKANSDRQWLTDKADRNNANPENSEVMKPYSSEYKTSTIAYKMPFAQFPKDCWITFDVAIDWTKYGKEANTILKPGKLDVMMTYTKNKKPQKAHIVNQQEILIGRNDDDGYYFKFGIYRVGNSTVPVTYNLSGYSETAR
- Linkage specificity of cleavage by heparinase I [4]: cleavage only occurs at I2S-containing linkages

B2: heparinase III: HLGAG degrading enzyme; cleaves at a glycosidic linkage before an unsulfated glucuronic acid (protein, UniProt Q59289 25-659, looked up)
Heparin-sulfate lyase: QSSSITRKDFDHINLEYSGLEKVNKAVAAGNYDDAAKALLAYYREKSKAREPDFSNAEKPADIRQPIDKVTREMADKALVHQFQPHKGYGYFDYGKDINWQMWPVKDNEVRWQLHRVKWWQAMALVYHATGDEKYAREWVYQYSDWARKNPLGLSQDNDKFVWRPLEVSDRVQSLPPTFSLFVNSPAFTPAFLMEFLNSYHQQADYLSTHYAEQGNHRLFEAQRNLFAGVSFPEFKDSPRWRQTGISVLNTEIKKQVYADGMQFELSPIYHVAAIDIFLKAYGSAKRVNLEKEFPQSYVQTVENMIMALISISLPDYNTPMFGDSWITDKNFRMAQFASWARVFPANQAIKYFATDGKQGKAPNFLSKALSNAGFYTFRSGWDKNATVMVLKASPPGEFHAQPDNGTFELFIKGRNFTPDAGVFVYSGDEAIMKLRNWYRQTRIHSTLTLDNQNMVITKARQNKWETGNNLDVLTYTNPSYPNLDHQRSVLFINKKYFLVIDRAIGEATGNLGVHWQLKEDSNPVFDKTKNRVYTTYRDGNNLMIQSLNADRTSLNEEEGKVSYVYNKELKRPAFVFEKPKKNAGTQNFVSIVYPYDGQKAPEISIRENKGNDFEKGKLNLTLTINGKQQLVLVP
- Difference in the rates of cleavage, I-containing linkages clipped more slowly than G-containing linkages ([5]; reaction conditions of this study): 8-10 fold
- Cleavage of G-containing linkages relative to I-containing linkages ([5]; recombinant heparinase III, tetrasaccharide substrates): roughly 10 times
